Counter-ions that a name gives are not always drawn.
Tests used:
[1] = test system: RNA3WJ_0.0.0_5IB_3FAM (3WJ_0.0.0_5IB_3FAM) RNA three way junction; experiment: Thermal shift binding assay; conditions: for Melt. Temp. with cmpd / Shift melt. Temp.: RNA sequence 3WJ_0.0.0_5IB_FAM; for Melt. Temp. with cmpd: melting temperature in presence of compound; for Shift melt. Temp.: melting temperature with cmpd minus without cmpd
Description: (§1) Purpose: Test binding of compounds for RNA three way junction (for example, a construct of 38 nt). Thermal shift assay based on established fluorescence quenching assay utilizing FAM as fluorescence tag and Iowa Black as quencher. Tags were attached at the 3′ and 5′ end, respectively. Stable formation of 3WJ upon compound binding would lead to quenching of the FAM fluorescence due to close proximity of the Iowa Black tag. Thermal unfolding leads to increase of fluorescence emission. Assay readout: FAM (465-510 nm) Thermal Shift.
(§2) Assay sample buffer used: 10 mM CacoK pH 7.2, 30 mM NaCl. Buffer preparation in Dnase/Rnase Free distilled water (Gibco Life Technologies).
(§3) Tool compounds provided as dry powder are prepared as 50 mM stock solution in 100% d6-DMSO. Stock solutions of 50 mM concentration in d6-DMSO are stored at RT.
(§4) Sample plate: Roche, Light Cycler480 Multiwell Plate96, white, REF 04729692001. (Dilution plate: Greiner REF 781101, PS-Microplate, 384 well, clear). Thermal Shift device: Roche, Light Cycler480.
(§5) Daily fresh (10 ml): 1 ml 100 mM CacoK pH 7.2 and 0.3 ml 1 M NaCl filled up to 10 ml with Dnase/Rnase Free distilled water.
(§6) Dilute the RNA 1:10 (final 10 μM) in Assay Buffer.
(§7) Heat up the diluted RNA up to 90° C. for 5 min (sealed Eppendorf Tube).
(§8) Cool down the RNA probe slowly to RT.
(§9) Dilute the compounds to 800 μM in DMSO (Assay: 8 μM).
(§10) 78.4 μL Assay Buffer are pipetted into Greiner REF 781101, PS-Microplate, 384 (each well needed).
(§11) Add 0.8 μL of the RNA-Solution ([…]).
(§12) Add 0.8 μL Compound-Solution ([…]).
(§13) Final concentrations in the sample: 1 μM RNA, 8 μM compound, 1% DMSO
(§14) Pipet 20 μL Sample Solution into Roche, Light Cycler480 Multiwell Plate96, white, REF 04729692001.
(§15) When sample transfer is finished, seal the plate with a clear topseal (part of REF 04729692001).
(§16) Centrifuge the plate with a table-top device to spin down the samples.
(§17) Measure the 96 plate with the LightCycler480 (Channel: 480/510 nm; Temperature: 41-91° C.).
(§18) Analyse measurement-data with the MeltingCurveGenotyping Mode.
(§19) Settings: Acquisition mode: continuous; Ramp rate: 0.1 C.°/sec; Acquisition: 6/C.° Melt Curve Genotyping for All Samples
(§20) Melting curves analysis show melting temperature (Tm) of ˜51° C. Range of RNA concentrations was tested and assay window was determined (conc. range of 0.5-1 μM yields best results). The choice of buffer also affected the Tm. RNA constructs were tested under different buffer conditions (especially in presence of salt) in the thermal shift assay. […] CacoK with 30 mM salt at 1 μM RNA conc. was used to assess compound effects on 3WJ stability. […] These conditions were used for screening test compounds.

[2] = test system: 3WJ_0.0.0_5IB_3FAM construct; experiment: Fluorescence quenching binding assay; conditions: at conc. >5 μM, FIG. 107
Experimental: This assay will be used to test binding of compounds for RNA three way junction (such as a 38 nt construct). This is a fluorescence quenching assay utilizing FAM as fluorescence tag and Iowa Black as quencher. Tags are attached at the 3′ and 5′ end, respectively. Stable formation of MW upon compound binding would lead to quenching of the FAM fluorescence due to close proximity of the Iowa Black tag. Assay readout: FAM (485-520 nm) Fluorescence Intensity.
as §2, §3
Sample plate: Greiner cat #784076, black, 384 (Dilution plate: Greiner REF 781101, PS-Microplate, 384 well, clear). Fluorescence Intensity device: Envision 1040285
Daily fresh (10 ml): 1 ml 100 mM CacoK pH 7.2 and 0.3 ml 1 M NaCl filled up to 10 ml with Dnase/Rnase Free distilled water
as §6
Heat up the diluted RNA up to 90° C. for 5 min (sealed Eppendorf Tube). […]
Calibration of the expected fluorescence signal at various RNA concentrations in either CacoK or NaPO4 buffers was performed first. Experiments in buffers containing salt show distinct fluorescence quenching behavior. […]

RNA3WJ_3.0.0_5IB_3FAM = experiment: Thermal shift binding assay; conditions: RNA:ligand ratios 1:1, 1:3
Description: as §1, §2, §3, §4, §5, §6, §7, §8, §9, §10, §11
Add 0.8 μL Compound-Solution ([…]). […]
as §14, §15, §16, §17, §18, §19, §20

[3] = test system: RNA3WJ_0.0.0_5IB_3FAM (3WJ_0.0.0_5IB_3FAM) RNA three way junction; experiment: Thermal shift binding assay; conditions: RNA:ligand ratios 1:1, 1:3, raw and normalized data
[4] = test system: RNA3WJ_1.0.0_5IB_3FAM (cis 3WJ with one unpaired nucleotide); experiment: Thermal shift binding assay; conditions: RNA3WJ_1.0.0_5IB 3FAM; RNA:ligand ratios 1:1, 1:3
Description: as §1, §2, §3, §4, §5, §6, §7, §8, §9, §10, §11, §12, §13, §14, §15, §16, §17, §18, §19, §20
Compounds Ark0000013 and Ark0000014 were also tested in the thermal shift assay against three RNA 3WJ constructs, A) RNA3WJ_1.0.0_5IB_3FAM (cis 3WJ with one unpaired nucleotide); B) Split3WJ.1_up_5IB+Split3WJ.1_down_3FAM (trans 3WJ as 1:1 mix); and C) Split3WJ.2_up_5IB+Split3WJ.2_down_3FAM (trans 3WJ as 1:1 mix).

[5] = RNA3WJ_0.0.0_5IB_3FAM, 1 μM RNA, 8 μM compound, 1% DMSO, 10 mM CacoK pH 7.2, 30 mM NaCl

Row | Compound | Temp. Shift [° C.] [1, 5] | Melt. Temp. with cmpd [1] | Shift melt. Temp. [1] | other results
1 | 4-((2S,4S)-4-azido-2-(methyl(12-methyl-13-oxo-15-(2,7,15-tris(8-aminooctanamido)-9,10-[1,2]benzenoanthracen-9(10H)-yl)-3,6,9-trioxa-12-azapentadecyl)carbamoyl)pyrrolidine-1-carbonyl)benzenesulfonyl fluoride [ARK000032] | +15.0 °C | 75.1 °C | +15.0 °C | 
2 | CC(C)(C)OC(=O)NCCCC[C@@H](NC(=O)OC(C)(C)C)C(=O)Nc1ccc2c(c1)C1(CCC(=O)NCCOCCOCCN)c3cc(NC(=O)[C@@H](CCCCNC(=O)OC(C)(C)C)NC(=O)OC(C)(C)C)ccc3C2c2ccc(NC(=O)[C@@H](CCCCNC(=O)OC(C)(C)C)NC(=O)OC(C)(C)C)cc21 [ARK000023] |  | 60.7 °C | +0.6 °C | 
3 | CN(CCOCCOCCN(C)C(=O)[C@@H]1C[C@H](N=[N+]=[N-])CN1C(=O)CCc1ccc(S(=O)(=O)F)cc1)C(=O)CCC12c3cc(NC(=O)CCCCCCCN)ccc3C(c3ccc(NC(=O)CCCCCCCN)cc31)c1ccc(NC(=O)CCCCCCCN)cc12 [ARK000028] |  | 82.3 °C | +22.0 °C | 
4 | [N-]=[N+]=NC[C@H]1O[C@H](O[C@@H]2[C@@H](O)[C@H](O[C@H]3O[C@H](CN)[C@@H](O)[C@H](O)[C@H]3O)[C@@H](N)C[C@H]2N)[C@H](O)[C@@H](N)[C@@H]1O [Ark000007, 6″-Azido-kanamycin A hydrochloride salt] | ~5 °C |  |  | Concentration dependent influence on the fluorescence signal (quenching effect) [2]: increase of quenching effect; Melting temp [° C.] + cmpd [1, 5]: 65.6 °C
5 | C#CCCCC(=O)NC[C@H]1O[C@H](O[C@H]2[C@H](O)[C@@H](O[C@H]3O[C@H](CO)[C@@H](O)[C@H](N)[C@H]3O)[C@H](N)C[C@@H]2N)[C@H](O)[C@@H](O)[C@@H]1O [Ark000008] |  |  |  | Effect on melting temperature (in words) ([1]; 3WJ_0.0.0_5IB_3FAM RNA construct, FIG. 110): very small effect
6 | CN(CCCN)CCCNC(=O)c1ccccc1 [Ark000039] |  |  |  | Effect in the melting curves (in words) (RNA3WJ_3.0.0_5IB_3FAM): lack of effect; Effect in the melting curves (in words) [3]: no significant effect; Effect in the melting curves (in words) [4]: lack of effect
7 | N,N′,N″-(9-(1-((2S,4S)-4-azido-1-(3-(4-(fluorosulfonyl)benzoyl)pyrrolidin-2-yl)-2,11-dimethyl-1,12-dioxo-5,8-dioxa-2,11-diazatetradecan-14-yl)-9,10-dihydro-9,10-[1,2]benzenoanthracene-2,7,15-triyl)tris(azanediyl))tris(8-aminooctanamide) [ARK000031] | +24.1 °C | 84.1 °C | +24.1 °C | 

Reference: US20220281860A1, “COMPOUNDS AND METHODS OF TREATING RNA-MEDIATED DISEASES” (Arrakis Therapeutics, Inc., priority 2016, published 2022)
